Tests used:
Details in all cases: in vivo
[1] = system: TIA (transient ischemic attack) symptoms
[2] = system: subacute temporal lobe infarct with encephalomalacia; set-up: species or system human
[3] = system: 12 mm right basal ganglia infarct (acute lacunar infarct); set-up: species or system human

SMILES | clinical state the next day [1] | effect on penumbra of injury [1] | sedation (side effect) on the second night [1] | swallowing on the second night [1] | mental clarity noted by the patient [2] | vision in the right hemifield [2] | function after treatment [3] | leg weakness, expansion of the infarct, symptoms [3]
Cc1ncc2n1-c1ccc(Cl)cc1C(c1ccccc1F)=NC2 [midazolam, 8-chloro-6-(2-fluorophenyl)-1-methyl-4H-imidazo[1,5a][1,4]benzodiazepine] | sitting talking to relatives, mentating better but could not swallow their own saliva | preventing expansion of the penumbra of injury | drowsy | could swallow their own saliva |  |  |  | 
CN1C(=O)CN=C(c2ccccc2)c2cc(Cl)ccc21 [diazepam, 7-chloro-1,3-dihydro-1-methyl-5-phenyl-1,4-benzodiazepin-2(3H)-one] |  |  |  |  | clearing of fogginess | unable to regain vision in the right hemifield | returned to pre-stroke function | the weakness resolved and there was no further expansion of the infarct or worsening of symptoms
CC12CC3CC(C)(C1)CC(N)(C3)C2 [memantine, 3,5-dimethyladamantan-1-amine] |  |  |  |  | clearing of fogginess | unable to regain vision in the right hemifield | returned to pre-stroke function | the weakness resolved and there was no further expansion of the infarct or worsening of symptoms

From patent US9433608B2 (priority 2013, dated 2016)
